US8357634B2, “N-alkoxycarboxamides and their use as microbiocides” (Syngenta Crop Protection LLC, priority 2009, dated 2013)

Columns and labels:
[1] = system: Botrvtis cinerea; test: Example B-1: Action against Botrytis cinerea, fungal growth assay; assay type: cell-based; details: 0.002% active ingredient, PDB broth, 24° C., photometric after 3-4 days
Experimental: (§1) Action against Botrvtis cinerea—fungal growth assay Conidia of the fungus from cryogenic storage was directly mixed into nutrient broth (PDB potato dextrose broth). After placing a (DMSO) solution of the test compounds (0.002% active ingredient) into a microtiter plate (96-well format) the nutrient broth containing the fungal spores was added. The test plates were incubated at 24° C. and the inhibition of growth was measured photometrically after 3-4 days. The activity of a compound was expressed as fungal growth inhibition (0=no growth inhibition, ratings of 80% to 99% mean good to very good inhibition, 100%=complete inhibition).

[2] = system: Mycosphaerella arachidis (Cercospora arachidicola); test: Example B-2: Action against Mycosphaerella arachidis, fungal growth assay; assay type: cell-based; details: 0.002% active ingredient, PDB broth, 24° C., photometric after 6-7 days
Experimental: as §1, with “Action Against Mycosphaerella arachidis (Early Leaf Spot of Groundnut; Cercospora arachidicola [fanamorph])—Fungal Growth Assay” for “Action against Botrvtis cinerea—fungal growth assay”, “storage were” for “storage was”, “after 6-7” for “after 3-4”

[3] = system: Septoria tritici; test: Example B-3: Action against Septoria tritici, fungal growth assay; assay type: cell-based; details: Zymoseptoria tritici; 0.002% active ingredient; PDB broth, 24° C., photometric after 72 hrs
Experimental: as §1, with “Action Against Septoria tritici—Fungal Growth Assay” for “Action against Botrvtis cinerea—fungal growth assay”, “storage were” for “storage was”, “was determined” for “was measured”, “after 72 hrs.” for “after 3-4 days.”

[4] = system: Erysiphe graminis f. sp. tritici; test: Example B-5: Action against Erysiphe graminis f. sp. tritici (wheat powdery mildew), wheat leaf segments; assay type: in vivo; details: Blumeria graminis, foliar, 168 h, 0.02% active ingredient, 7 days after inoculation, read-out: preventive fungicidal activity (inhibition)
Experimental: (§2) Action Against Erysiphe graminis f. sp. tritici (Wheat Powdery Mildew) Wheat leaf segments were placed on agar in multiwell plates (24-well format) and sprayed with test solutions (0.02% active ingredient). After drying, the leaf disks were inoculated with a spore suspension of the fungus. After appropriate incubation the activity of a compound was assessed 7 days after inoculation as preventive fungicidal activity.

[5] = system: Pyrenophora teres; test: Example B-8: Action against Pyrenophora teres (net blotch) on barley leaf segments; assay type: in vivo; details: foliar, 96 h, 0.02% active ingredient, 4 days after inoculation, read-out: preventive fungicidal activity (inhibition)
Experimental: as §2, with “Pyrenophora teres (Net Blotch) on Barley Barley” for “Erysiphe graminis f. sp. tritici (Wheat Powdery Mildew) Wheat”, “4” for “7”

[6] = system: Puccinia recondita; test: Example B-6: Protective action against Puccinia recondita (brown rust) on wheat leaf segments; assay type: in vivo; details: foliar, 192 h, 0.02% active ingredient, 8 days after inoculation, read-out: preventive fungicidal activity (inhibition)
Experimental: as §2, with “Protective Action” for “Action”, “Puccinia recondita (Brown Rust) on Wheat” for “Erysiphe graminis f. sp. tritici (Wheat Powdery Mildew)”, “8” for “7”

[7] = system: Phaeosphaeria nodorum (Septoria nodorum); test: Example B-11: Phaeosphaeria nodorum / wheat / leaf disc preventative (comparative); assay type: in vivo; details: 4 dpi
Experimental: (§3) Phaeosphaeria nodorum (Septoria nodorum)/Wheat/Leaf Disc Preventative (Glume Blotch) Wheat leaf segments were placed on agar in a multiwell plate (24-well format) and sprayed with test solutions. After drying, the leaf disks were inoculated with a spore suspension of the fungus. After appropriate incubation the activity of a compound was assessed 4 dpi (days after inoculation) as preventive fungicidal activity.

[8] = system: Puccinia recondita; test: Example B-10: Puccinia recondita / wheat / leaf disc preventative (comparative); assay type: in vivo; details: 8 dpi
Experimental: Puccinia recondita/Wheat/Leaf Disc Preventative (Brown Rust) Wheat leaf segments were placed on agar in multiwell plates (24-well format) and sprayed with test solutions. After drying, the leaf disks were inoculated with a spore suspension of the fungus. After appropriate incubation the activity of a compound was assessed 8 dpi (days after inoculation) as preventive fungicidal activity.

[9] = system: Mycosphaerella praminicola (Seotoria tritici); test: Example B-16: Mycosphaerella graminicola (Septoria tritici) / liquid culture (comparative); assay type: cell-based; details: 96 h, 24° C., photometric after 4 days, read-out: inhibition of growth
Experimental: (§4) Mycosphaerella praminicola (Seotoria tritici)/Liquid Culture (Septoria Blotch) Conidia of the fungus from cryogenic storage were directly mixed into nutrient broth (PDB potato dextrose broth). After placing a (DMSO) solution of the test compounds into a microtiter plate (96-well format) the nutrient broth containing the fungal spores was added. The test plates were incubated at 24° C. and the inhibition of growth is measured photometrically after 4 days.

[10] = system: Blumeria graminis f. sp. tritici (Erysiphe graminis f. sp. tritici); test: Example B-9: Blumeria graminis f. sp. tritici / wheat / leaf disc preventive (comparative); assay type: in vivo; details: 4 dpi
Experimental: as §3, with “Blumeria graminis f. sp. tritici (Erysiphe graminis f. sp. tritici)/Wheat/Leaf” for “Phaeosphaeria nodorum (Septoria nodorum)/Wheat/Leaf”, “Preventive (Powdery mildew on wheat)” for “Preventative (Glume Blotch)”

[11] = system: Botryotinia fuckeliana (Botrytis cinerea); test: Example B-14: Botryotinia fuckeliana (Botrytis cinerea) / liquid culture (comparative); assay type: cell-based; details: 24° C., photometric after 3-4 days, read-out: inhibition of growth
Experimental: Botryotinia fuckeliana (Botrytis cinerea)/Liquid Culture (Gray Mould) Conidia of the fungus from cryogenic storage were directly mixed into nutrient broth. After placing a (DMSO) solution of the test compounds into a microtiter plate (96-well format) the nutrient broth containing the fungal spores was added. The test plates were incubated at 24° C. and the inhibition of growth is determined photometrically after 3-4 days.

[12] = system: Monopraphella nivalis (Microdochium nivale); test: Example B-18: Monographella nivalis (Microdochium nivale) / liquid culture (comparative); assay type: cell-based; details: 24° C., photometric after 4-6 days, read-out: inhibition of growth
Experimental: Monopraphella nivalis (Microdochium nivale)/Liquid Culture (Foot Rot Cereals Conidia of the fungus from cryogenic storage were directly mixed into nutrient broth (PDB potato dextrose broth). After placing a (DMSO) solution of the test compounds into a microtiter plate (96-well format) the nutrient broth containing the fungal spores was added. The test plates were incubated at 24° C. and the inhibition of growth is measured photometrically after 4-6 days.

[13] = system: Mycosphaerella arachidis (Cercospora arachidicola); test: Example B-15: Mycosphaerella arachidis / liquid culture (comparative); assay type: cell-based; details: 24° C., photometric after 6-7 days, read-out: inhibition of growth
Experimental: as §4, with “Mycosphaerella arachidis (Cercospora arachidicola)/Liquid” for “Mycosphaerella praminicola (Seotoria tritici)/Liquid”, “Culture (Early Leaf Spot)” for “Culture (Septoria Blotch)”, “after 6-7” for “after 4”

[14] = system: Alternaria solani; test: Example B-13: Alternaria solani / tomato / leaf disc (comparative); assay type: in vivo; details: 4 dpi
Experimental: Alternaria solani/Tomato/Leaf Disc (Early Blight) Tomato leaf disks were placed on water agar in multiwell plates (24-well format) and sprayed with test solutions. After drying, the leaf disks were inoculated with a spore suspension of the fungus. After appropriate incubation the activity of a compound was assessed 4 dpi (days after inoculation) as preventive fungicidal activity.

[15] = system: Gaeumannomyces graminis; test: Example B-17: Gaeumannomyces graminis / liquid culture (comparative); assay type: cell-based; details: 24 C, photometric after 2-3 days, read-out: inhibition of growth
Experimental: as §4, with “Gaeumannomyces graminis/Liquid” for “Mycosphaerella praminicola (Seotoria tritici)/Liquid”, “(Take-All of Cereals) Mycelial fragments” for “(Septoria Blotch) Conidia”, “24 C” for “24° C.”, “was determined” for “is measured”, “2-3” for “4”

[16] = system: Pyrenophora teres; test: Example B-12: Pyrenophora teres / barley / leaf disc preventive (comparative); assay type: in vivo; details: 4 dpi
Experimental: as §3, with “Pyrenophora teres/Barley/Leaf” for “Phaeosphaeria nodorum (Septoria nodorum)/Wheat/Leaf”, “Preventive (Net” for “Preventative (Glume”, “Barley” for “Wheat”

CON(Cc1cccc(I)c1)C(=O)c1cn(C)nc1C(F)F [Compound 1.097, 3-difluoromethyl-1,1-dimethyl-1H-pyrazole-4-carboxylic acid (3-iodo-benzyl)-methoxy-amide]
114 to 116 °C: melting point
≥ 80%: inhibition at 0.002 % strength [1] | inhibition at 0.002 % strength [2] | inhibition at 0.002 % strength [3]

CON(C(=O)c1cn(C)nc1C(F)F)C(C)c1cccc(Oc2ccc(Cl)cc2)c1 (stereo not shown) [Compound 1.021, 3-difluoromethyl-1-methyl-1H-pyrazole-4-carboxylic acid {1-[3-(4-chloro-phenoxy)-phenyl]-ethyl}-methoxy-amide]
≥ 80%: inhibition at 0.002 % strength [1] | inhibition at 0.02 % strength [4] | inhibition at 0.02 % strength [5] | inhibition at 0.002 % strength [2] | inhibition at 0.002 % strength [3] | inhibition at 0.02 % strength [6]

CON(C(=O)c1cn(C)nc1C(F)F)C(C)c1ccc(Oc2ccc(Cl)cc2)cc1 (stereo not shown) [Compound 1.010, 3-difluoromethyl-1-methyl-1H-pyrazole-4-carboxylic acid {1-[4-(4-chloro-phenoxy)-phenyl]-ethyl}-methoxy-amide]
≥ 80%: inhibition at 0.002 % strength [1] | inhibition at 0.02 % strength [4] | inhibition at 0.02 % strength [5] | inhibition at 0.002 % strength [2] | inhibition at 0.002 % strength [3] | inhibition at 0.02 % strength [6]

CON(C(=O)c1cn(C)nc1C(F)F)C(C)c1cccc(-c2ccc(Cl)cc2)c1 (stereo not shown) [Compound 1.019, 3-difluoromethyl-1-methyl-1H-pyrazole-4-carboxylic acid [1-(4′ chloro-biphenyl-3-yl)-ethyl]-methoxy-amide]
≥ 80%: inhibition at 0.002 % strength [1] | inhibition at 0.02 % strength [4] | inhibition at 0.02 % strength [5] | inhibition at 0.002 % strength [2] | inhibition at 0.002 % strength [3] | inhibition at 0.02 % strength [6]

CC(NC(=O)c1cn(C)nc1C(F)F)c1ccc(Cl)cc1Cl (stereo not shown) [No. 1.042 (prior art), reference compound]
100: preventive fungicidal activity ([10]; 200 ppm) | preventive fungicidal activity ([16]; 200 ppm)
70: preventive fungicidal activity ([7]; 200 ppm) | preventive fungicidal activity ([14]; 200 ppm)
50%: inhibition at 200 ppm ([11]; 200 ppm) | inhibition at 60 ppm ([12]; 60 ppm)
90: preventive fungicidal activity ([16]; 60 ppm)
0%: inhibition at 20 ppm ([11]; 20 ppm) | inhibition at 6 ppm ([12]; 6 ppm) | inhibition at 20 ppm ([12]; 20 ppm) | inhibition at 6 ppm ([13]; 6 ppm) | inhibition at 6 ppm ([15]; 6 ppm) | inhibition at 20 ppm ([15]; 20 ppm) | inhibition at 60 ppm ([15]; 60 ppm)
50: preventive fungicidal activity ([8]; 200 ppm) | preventive fungicidal activity ([10]; 60 ppm) | preventive fungicidal activity ([16]; 20 ppm)
20: preventive fungicidal activity ([14]; 60 ppm)
0: preventive fungicidal activity ([7]; 20 ppm) | preventive fungicidal activity ([7]; 60 ppm) | preventive fungicidal activity ([8]; 20 ppm) | preventive fungicidal activity ([8]; 60 ppm) | preventive fungicidal activity ([10]; 20 ppm) | preventive fungicidal activity ([14]; 20 ppm)
100%: inhibition at 20 ppm ([9]; 20 ppm) | inhibition at 60 ppm ([9]; 60 ppm) | inhibition at 20 ppm ([13]; 20 ppm) | inhibition at 60 ppm ([13]; 60 ppm)
20%: inhibition at 6 ppm ([9]; 6 ppm) | inhibition at 60 ppm ([11]; 60 ppm)

CON(Cc1cccc(-c2ccc(Cl)cc2)c1)C(=O)c1cn(C)nc1C(F)F [Compound 1.098, 3-difluoromethyl-1-methyl-1H-pyrazole-4-carboxylic acid (4′-chloro-biphenyl-3-ylmethyl)-methoxy-amide]
≥ 80%: inhibition at 0.002 % strength [1] | inhibition at 0.02 % strength [4] | inhibition at 0.02 % strength [5] | inhibition at 0.002 % strength [2] | inhibition at 0.002 % strength [3] | inhibition at 0.02 % strength [6]
